Laboratory results from patent US20130217659A1, “PROCESS FOR THE CRYSTALLISATION OF CEFADROXIL MONOHYDRATE” (DSM SINOCHEM PHARMACEUTICALS NETHERLANDS B.V., priority 2006, published 2013).
Values belong to the compound of their own block, whether it stands above or below them.

Columns and labels:
Format in all cases: physicochemical
[1] = Colour stability test, stress conditions: storage at 40° C.; conditions: stored at 40° C.
Description: The CIE b value was determined using a X-Rite® 918 apparatus (X-Rite Incorporated, 4300 44th St. SE, Grand Rapids, Mich. 49512 USA). A sample of 2 g of cefadroxil crystals was placed at the appropriate place of the apparatus and the CIE b value was read. The average of two separate readings was calculated. Cefadroxil (CDX) monohydrate crystals obtained by the one-step crystallisation process of the Reference Experiment A and the two-step crystallisation process according to the present invention were stored at a temperature of 40° C. The CIE b values of the different cefadroxil monohydrate crystals were determined at different time intervals as indicated in Table 1. CDX (1)-(3) were obtained from 3 different crystallisation processes.

[2] = Colour stability test, storage at 25° C.; conditions: stored at 25° C.
Description: The CIE b value was determined using a X-Rite® 918 apparatus (X-Rite Incorporated, 4300 44th St. SE, Grand Rapids, Mich. 49512 USA). A sample of 2 g of cefadroxil crystals was placed at the appropriate place of the apparatus and the CIE b value was read. The average of two separate readings was calculated. The cefadroxil monohydrate crystals obtained with the one-step crystallisation process of Reference experiment A and a two-step crystallisation process according to the present invention were stored at 25° C.

[3] = Determination of the CIE b value (colour of crystals) after crystallisation; conditions: crystals after isolation and drying, t=0; monohydrate
Description: CIE is an abbreviation for the French title of the International Commission on Illumination: “Commission International de l'Eclairage”. The CIE b is a measure to determine the colour of crystals, which is a known technology for the skilled man in the art. An overview of the fundamentals of the CIE colorimetry system is given in Ohno, Y., Paper for IS&T NIO16 Conference, Vancouver, Canada, Oct. 16-20, 2000, p. 1-5. The CIE b value was determined using a X-Rite® 918 apparatus (X-Rite Incorporated, 4300 44th St. SE, Grand Rapids, Mich. 49512 USA). A sample of 2 g of cefadroxil crystals was placed at the appropriate place of the apparatus and the CIE b value was read. The average of two separate readings was calculated.

CIE b ([2]; 0 months, monohydrate): 4.8
CIE b ([2]; 3 months, monohydrate): 5.8
CIE b ([2]; 6 months, monohydrate): 6.0
CIE b ([2]; 9 months, monohydrate): 6.3
SMILES: CC1=C(C(=O)O)N2C(=O)[C@@H](NC(=O)[C@H](N)c3ccc(O)cc3)[C@H]2SC1 [two-step crystallization process, cefadroxil monohydrate]

CIE b value [3]: 6.2
CIE b ([1]; 0 weeks, listed as CDX monohydrate crystals obtained by the one-step crystallisation process, monohydrate): 6.2
CIE b ([1]; 2 weeks, listed as CDX monohydrate crystals obtained by the one-step crystallisation process, monohydrate): 10.0
CIE b ([1]; 4 weeks, listed as CDX monohydrate crystals obtained by the one-step crystallisation process, monohydrate): 13.2
CIE b ([1]; 6 weeks): 15.6
CIE b ([1]; 8 weeks, listed as CDX monohydrate crystals obtained by the one-step crystallisation process, monohydrate): 17.0
CIE b ([1]; 12 weeks): 14.2
CIE b ([1]; 14 weeks): 18.2
CIE b ([1]; 18 weeks): 18.6
CIE b ([1]; 20 weeks, listed as CDX monohydrate crystals obtained by the one-step crystallisation process, monohydrate): 19.1
CIE b ([1]; 24 weeks, listed as CDX monohydrate crystals obtained by the one-step crystallisation process, monohydrate): 20.0
CIE b ([2]; 0 months, listed as one-step crystallization process, monohydrate): 6.2
CIE b ([2]; 3 months, listed as one-step crystallization process, monohydrate): 14.0
CIE b ([2]; 6 months, listed as one-step crystallization process, monohydrate): 14.7
CIE b ([2]; 9 months, listed as one-step crystallization process, monohydrate): 15.1
CIE b ([2]; 12 months): 15.5
CIE b ([2]; 18 months): 17.7
SMILES: CC1=C(C(=O)O)N2C(=O)[C@@H](NC(=O)[C@H](N)c3ccc(O)cc3)[C@H]2SC1 [Reference Experiment A, cefadroxil monohydrate]

Further lines, the compound ahead of its results:

SMILES: CC1=C(C(=O)O)N2C(=O)[C@@H](NC(=O)[C@H](N)c3ccc(O)cc3)[C@H]2SC1 [CDX (1), cefadroxil monohydrate]
CIE b ([1]; 0 weeks, monohydrate): 4.8
CIE b ([1]; 4 weeks, monohydrate): 6.6
CIE b ([1]; 8 weeks, monohydrate): 9.1
CIE b ([1]; 12 weeks, monohydrate): 10.4
CIE b ([1]; 20 weeks, monohydrate): 12.4
CIE b ([1]; 24 weeks, monohydrate): 12.9

SMILES: CC1=C(C(=O)O)N2C(=O)[C@@H](NC(=O)[C@H](N)c3ccc(O)cc3)[C@H]2SC1 [Example 1, cefadroxil monohydrate]
CIE b value [3]: 4.68

SMILES: CC1=C(C(=O)O)N2C(=O)[C@@H](NC(=O)[C@H](N)c3ccc(O)cc3)[C@H]2SC1 [CDX (3), cefadroxil monohydrate]
CIE b ([1]; 0 weeks, monohydrate): 3.1
CIE b ([1]; 2 weeks, monohydrate): 3.0
CIE b ([1]; 4 weeks, monohydrate): 4.6

SMILES: CC1=C(C(=O)O)N2C(=O)[C@@H](NC(=O)[C@H](N)c3ccc(O)cc3)[C@H]2SC1 [Example 2, cefadroxil monohydrate]
CIE b value [3]: 4.52

SMILES: CC1=C(C(=O)O)N2C(=O)[C@@H](NC(=O)[C@H](N)c3ccc(O)cc3)[C@H]2SC1 [CDX (2), cefadroxil monohydrate]
CIE b ([1]; 0 weeks, monohydrate): 4.4
CIE b ([1]; 2 weeks, monohydrate): 4.8
CIE b ([1]; 4 weeks, monohydrate): 5.1
